Measured values as given in ChEMBL document CHEMBL1136681, “[3H]-(R)-NPTS, a radioligand for the type 1 glycine transporter” (Bioorg Med Chem Lett, 2003).

Test: Inhibition of [3-H]-glycine uptake into rat synaptosomes
Format: subcellular, Brain

Row | IC50 | SMILES
1 | 153 nM | Cc1ccc(C(=O)c2ccc(OC(CCN(C)CC(=O)O)c3ccccc3)cc2)cc1 (configuration not stated)
2 | 36.4 nM | CN(CCC(Oc1ccc(-c2ccccc2)cc1)c1ccc(F)cc1)CC(=O)O (configuration not stated)
